Results: patent US9896445B2, “Heterocyclic inhibitors of ERK1 and ERK2 and their use in the treatment of cancer” (Asana Biosciences, LLC, priority 2015, dated 2018)

Legend:
ERK1 = target: T1, ERK1 (Homo sapiens, UniProt P27361); assay: ERK1 HTRF (biochemical) assay
T1 construct: purchased Jubilant Biosys
Method: ERK1 and ERK2 HTRF (Biochemical) Assays
These assays employed a homogeneous time resolved fluorescence (HTRF) technique. […] The plate was incubated at room temperature for 60 min with shaking. […] The IC50 values (half maximal inhibitory concentration values) were subsequently determined using a sigmoidal dose-response curve (variable slope) in GraphPad Prism® 5 software.

ERK2 = target: T2, ERK2 (Homo sapiens, UniProt P28482); assay: ERK2 HTRF (biochemical) assay
T2 construct: purchased Jubilant Biosys
Summary of the method: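 Compounds were tested as half-log dilutions from 0.0005 to 10 uM in Tris pH 7.5/MgCl2 buffer, with a substrate mix of 1 uM biotin-MBP peptide and 24 uM ATP and an enzyme mix of 25 nM ERK2. Reaction ran 60 min at room temperature. Phospho-MBP was detected by HTRF (Eu-anti-phospho-MBP/SA-APC, 665/620 nm), and IC50 was fitted with a variable-slope sigmoidal curve.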

T2 sequence (P28482 whole entry): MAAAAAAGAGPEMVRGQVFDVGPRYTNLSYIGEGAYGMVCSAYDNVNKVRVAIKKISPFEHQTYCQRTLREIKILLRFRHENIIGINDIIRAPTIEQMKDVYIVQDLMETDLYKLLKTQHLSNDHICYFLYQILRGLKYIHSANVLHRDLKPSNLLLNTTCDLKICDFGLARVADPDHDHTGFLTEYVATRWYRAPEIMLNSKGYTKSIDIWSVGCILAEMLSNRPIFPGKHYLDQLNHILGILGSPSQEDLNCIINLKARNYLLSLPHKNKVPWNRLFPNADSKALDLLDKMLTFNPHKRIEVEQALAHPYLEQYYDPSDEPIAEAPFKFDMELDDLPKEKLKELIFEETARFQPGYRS
T1 sequence (P27361 whole entry): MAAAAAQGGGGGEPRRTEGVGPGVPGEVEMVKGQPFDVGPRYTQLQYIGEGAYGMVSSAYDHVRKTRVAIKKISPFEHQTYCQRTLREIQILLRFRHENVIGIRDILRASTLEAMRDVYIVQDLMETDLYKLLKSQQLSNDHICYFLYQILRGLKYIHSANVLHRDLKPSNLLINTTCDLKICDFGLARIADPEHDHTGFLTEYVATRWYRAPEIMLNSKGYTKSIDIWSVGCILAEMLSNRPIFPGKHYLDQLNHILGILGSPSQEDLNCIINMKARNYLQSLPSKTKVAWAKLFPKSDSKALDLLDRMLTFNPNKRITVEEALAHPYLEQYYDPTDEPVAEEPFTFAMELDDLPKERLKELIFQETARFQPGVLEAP

IC50 (ERK1; HTRF) | IC50 (ERK2; HTRF) | IC50 (ERK1; HTRF biochemical assay) | IC50 (ERK2; HTRF biochemical assay) | SMILES
100 to 500 nM | 50 to 100 nM |  |  | CC(=O)NCC(NC(=O)c1ccn(-c2nc(Nc3ccc4c(c3)OC(F)(F)O4)ncc2C)c1)c1cccc(Cl)c1 (stereo not shown) [Compound 158, N-(2-acetamido-1-(3-chlorophenyl)-ethyl)-1-(2-((2,2-difluorobenzo[d] [1,3]dioxol-5-yl)-amino)-5-methyl-pyrimidin-4-yl)-1H-pyrrole-3-carboxamide]
50 to 100 nM | 50 to 100 nM |  |  | Cc1cnc(NC2CC2)nc1-n1cc(NC(=O)NC(CO)c2cccc(Cl)c2)cn1 (stereo not shown) [Compound 28, 1-(1-(3-chloro-phenyl)-2-hydroxy-ethyl)-3-(1-(2-(cyclopropyl-amino)-5-methylpyrimidin-4-yl)-1H-pyrazol-4-yl)urea]
< 50 nM | ≤ 50 nM |  |  | Cc1cnc(Nc2ccc(F)cc2Cl)cc1-n1ccc(C(=O)NC(CO)c2ccccc2)c1 (stereo not shown) [Compound 78, 1-(2-((2-chloro-4-fluorophenyl)amino)-5-methylpyridin-4-yl)-N-(2-hydroxy-1-phenylethyl)-1H-pyrrole-3-carboxamide]
< 50 nM | ≤ 50 nM |  |  | Cc1cnc(Nc2ccc(F)cc2Cl)nc1-n1ccc(C(=O)NC(CO)c2ccccc2)c1 (stereo not shown) [Compound 32, 1-(2-((2-chloro-4-fluorophenyl)amino)-5-methyl-pyrimidin-4-yl)-N-(2-hydroxy-1-phenylethyl)-1H-pyrrole-3-carboxamide]
 |  | < 50 nM | ≤ 50 nM | Cc1cnc(N[C@H]2CCOC2)nc1-n1cnc(C(=O)NCc2ccc(Cl)c(Cl)c2)c1 [Example 314, (S)-N-(3,4-dichlorobenzyl)-1-(5-methyl-2-((tetrahydrofuran-3-yl)amino)pyrimidin-4-yl)-1H-imidazole-4-carboxamide]
< 50 nM | ≤ 50 nM |  |  | Cc1cnc(NC2CCOCC2)nc1-n1cnc(C(=O)NCc2ccccc2CO)c1 [Example 287, N-(2-(hydroxy-methyl)benzyl)-1-(5-methyl-2-((tetrahydro-2H-pyran-4-yl)amino)-pyrimidin-4-yl)-1H-imidazole-4-carboxamide]
< 50 nM | ≤ 50 nM |  |  | Cc1cnc(Nc2cccnc2)cc1-n1ccc(C(=O)NC(CO)c2ccc(F)c(Cl)c2)c1 (stereo not shown) [Compound 171, N-(1-(3-chloro-4-fluorophenyl)-2-hydroxyethyl)-1-(5-methyl-2-(pyridin-3-ylamino)pyridin-4-yl)-1H-pyrrole-3-carboxamide]
< 50 nM | ≤ 50 nM |  |  | Cc1cccc([C@@H](CO)NC(=O)c2ccn(-c3nc(N[C@H]4CCOC4)ncc3C)c2)n1 [Compound 207, N-((S)-2-hydroxy-1-(6-methylpyridin-2-yl)ethyl)-1-(5-methyl-2-(((S)-tetrahydrofuran-3-yl)amino)pyrimidin-4-yl)-1H-pyrrole-3-carboxamide]
< 50 nM | ≤ 50 nM |  |  | Cc1cnc(NC2CCOCC2)nc1-n1cnc(C(=O)NC(c2cccc(Cl)c2)C(C)O)c1 (single isomer, unassigned) [Compound 252, N-(1-(3-chlorophenyl)-2-hydroxypropyl)-1-(5-methyl-2-((tetrahydro-2H-pyran-4-yl)amino)-pyrimidin-4-yl)-1H-imidazole-4-carboxamide]
50 to 100 nM | ≤ 50 nM |  |  | Cc1cnc(Nc2ccc(F)cc2Cl)nc1-n1cc(C(=O)NC(CN)c2ccccc2)cn1 (stereo not shown) [Compound 54, N-(2-amino-1-phenylethyl)-1-(2-((2-chloro-4-fluoro-phenyl)amino)-5-methylpyrimidin-4-yl)-1H-pyrazole-4-carboxamide]
< 50 nM | ≤ 50 nM |  |  | Cc1cnc(N[C@H]2CCOC2)nc1-n1cnc(C(=O)N[C@H](CN)c2cccc(Cl)c2)c1 [Example 255, N-((S)-2-amino-1-(3-chlorophenyl)-ethyl)-1-(5-methyl-2-(((S)-tetrahydro-furan-3-yl)amino)-pyrimidin-4-yl)-1H-imidazole-4-carboxamide]
< 50 nM | 100 to 500 nM |  |  | CN(C(=O)Nc1cnn(-c2ccnc(NC3CC3)n2)c1)[C@H](CO)c1ccccc1 [Compound 18, (S)-3-(1-(2-(cyclopropylamino)pyrimidin-4-yl)-1H-pyrazol-4-yl)-1-(2-hydroxy-1-phenylethyl)-1-methylurea]
< 50 nM | ≤ 50 nM |  |  | CC(=O)NCC(NC(=O)c1ccn(-c2cc(Nc3ccc(F)cc3)ncc2C)c1)c1ccccc1 (stereo not shown) [Compound 135, N-(2-acetamido-1-phenylethyl)-1-(2-((4-fluorophenyl)-amino)-5-methyl-pyridin-4-yl)-1H-pyrrole-3-carboxamide]
< 50 nM | ≤ 50 nM |  |  | COc1cc(Nc2ncc(C)c(-n3ccc(C(=O)NC(CO)c4ccccc4)c3)n2)ccc1F (stereo not shown) [Compound 154, 1-(2-((4-fluoro-3-methoxyphenyl)amino)-5-methyl-pyrimidin-4-yl)-N-(2-hydroxy-1-phenylethyl)-1H-pyrrole-3-carboxamide]
 |  | < 50 nM | ≤ 50 nM | Cc1cnc(N[C@H]2CCOC2)nc1-n1cnc(C(=O)NCc2cc(Cl)cc(Cl)c2)c1 [Example 313, (S)-N-(3,5-dichloro-benzyl)-1-(5-methyl-2-((tetrahydrofuran-3-yl)amino)-pyrimidin-4-yl)-1H-imidazole-4-carboxamide]
< 50 nM | ≤ 50 nM |  |  | Cc1cnc(NC2CCOCC2)nc1-n1cnc(C(=O)NC(CN)c2ccc(Cl)s2)c1 (stereo not shown) [Example 274, N-(2-amino-1-(5-chlorothiophen-2-yl)ethyl)-1-(5-methyl-2-((tetrahydro-2H-pyran-4-yl)amino)-pyrimidin-4-yl)-1H-imidazole-4-carboxamide]
 |  | 50 to 100 nM | ≤ 50 nM | Cc1cnc(N[C@H]2CCOC2)nc1-n1cnc(C(=O)NCc2cccc(C(F)(F)F)c2)c1 [Example 311, (S)-1-(5-methyl-2-((tetrahydrofuran-3-yl)amino)-pyrimidin-4-yl)-N-(3-(trifluoro-methyl)benzyl)-1H-imidazole-4-carboxamide]
50 to 100 nM | ≤ 50 nM |  |  | CC[C@@H](CO)Nc1cc(-n2ccc(C(=O)NC(CO)c3ccccc3)c2)c(C)cn1 (stereo partly drawn) [Compound 100, N-(2-hydroxy-1-phenylethyl)-1-(2-(((S)-1-hydroxy-butan-2-yl)amino)-5-methylpyridin-4-yl)-1H-pyrrole-3-carboxamide]
< 50 nM | ≤ 50 nM |  |  | COc1c(F)cccc1Nc1ncc(C)c(-n2ccc(C(=O)NC(CO)c3cccc(Cl)c3)c2)n1 (stereo not shown) [Compound 143]
< 50 nM | ≤ 50 nM |  |  | Cc1cnc(NC2CCOCC2)nc1-n1cnc(C(=O)NCc2sccc2CN)c1 [Example 294, N-((3-(amino-methyl)thiophen-2-yl)methyl)-1-(5-methyl-2-((tetrahydro-2H-pyran-4-yl)amino)-pyrimidin-4-yl)-1H-imidazole-4-carboxamide]
< 50 nM | ≤ 50 nM |  |  | CNC(=O)c1ccc(Nc2ncc(C)c(-n3ccc(C(=O)NC(CO)c4cccc(Cl)c4)c3)n2)cc1 (stereo not shown) [Compound 196, N-(1-(3-chloro-phenyl)-2-hydroxy-ethyl)-1-(5-methyl-2-((4-(methyl-carbamoyl)phenyl)amino)pyrimidin-4-yl)-1H-pyrrole-3-carboxamide]
100 to 500 nM | ≤ 50 nM |  |  | Cc1cnc(Nc2ccccc2)cc1-n1cnc(C(=O)NC(CO)c2ccccc2)c1 (stereo not shown) [Compound 89, N-(2-hydroxy-1-phenylethyl)-1-(5-methyl-2-(phenyl-amino)pyridin-4-yl)-1H-imidazole-4-carboxamide]
< 50 nM | ≤ 50 nM |  |  | Cc1cnc(NC2CCOCC2)nc1-n1cnc(C(=O)NC(CN)c2ccc(Cl)s2)c1 (single isomer, unassigned; enantiomer #1) [Example 290, N-(2-amino-1-(5-chlorothiophen-2-yl)ethyl)-1-(5-methyl-2-((tetrahydro-2H-pyran-4-yl)amino)-pyrimidin-4-yl)-1H-imidazole-4-carboxamide (enantiomer #1)]
< 50 nM | ≤ 50 nM |  |  | Cc1cnc(NC2CCCOC2)nc1-n1ccc(C(=O)N[C@H](CO)c2cccc(Cl)c2)c1 (stereo partly drawn) [Compound 152, N-((S)-1-(3-chlorophenyl)-2-hydroxyethyl)-1-(5-methyl-2-((tetrahydro-2H-pyran-3-yl)amino)pyrimidin-4-yl)-1H-pyrrole-3-carboxamide]
< 50 nM | ≤ 50 nM |  |  | O=C(NC(CO)c1cccc(Cl)c1)c1ccn(-c2ccnc(Nc3ccccc3)c2)c1 (stereo not shown) [Compound 46, N-(1-(3-chloro-phenyl)-2-hydroxy-ethyl)-1-(2-(phenyl-amino)pyridin-4-yl)-1H-pyrrole-3-carboxamide]
< 50 nM | ≤ 50 nM |  |  | Cc1cnc(NC2CCOCC2)nc1-n1cnc(C(=O)NC(c2cccc(Cl)c2)C(C)O)c1 (stereo not shown) [Compound 253, N-(1-(3-chlorophenyl)-2-hydroxypropyl)-1-(5-methyl-2-((tetrahydro-2H-pyran-4-yl)amino)-pyrimidin-4-yl)-1H-imidazole-4-carboxamide]
< 50 nM | ≤ 50 nM |  |  | Cc1cnc(N[C@H]2CCOC2)nc1-n1cnc(C(=O)NCc2cccc(Cl)c2CO)c1 [Example 270]
50 to 100 nM | 50 to 100 nM |  |  | Cc1cnc(NC2CCCCC2O)nc1-n1ccc(C(=O)NC(CO)c2ccc(F)c(Cl)c2)c1 (stereo not shown) [Compound 202, N-(1-(3-chloro-4-fluorophenyl)-2-hydroxyethyl)-1-(2-((2-hydroxy-cyclohexyl)amino)-5-methylpyrimidin-4-yl)-1H-pyrrole-3-carboxamide]

SMILES | IC50 (ERK1; HTRF) | IC50 (ERK2; HTRF) | IC50 (ERK1; HTRF biochemical assay) | IC50 (ERK2; HTRF biochemical assay)
Cc1cnc(NC2CCOCC2)nc1-n1cnc(C(=O)N[C@@H](CN)c2cccc(Cl)c2)c1 (single isomer, unassigned) [Compound 225b] | < 50 nM | ≤ 50 nM |  | 
